Source: US20250214942A1, “INHIBITORS OF RECEPTOR INTERACTING PROTEIN KINASE I FOR THE TREATMENT OF DISEASE” (Board of Regents, The University of Texas System, priority 2019, published 2025)
Where two headings read alike, the source gives them in different places.

Tests used:
RIPK1 = RIPK1 (Homo sapiens (Human), UniProt Q13546); assay: ADP-Glo kinase assay (RIPK1 activity, conversion of ATP to ADP); format: biochemical; details: 5 nM RIPK1, 50 μM ATP, 6 h reaction; read-out: RIPK1 Enzyme Avg IC50
RIPK1, sequence (Q13546 1-327): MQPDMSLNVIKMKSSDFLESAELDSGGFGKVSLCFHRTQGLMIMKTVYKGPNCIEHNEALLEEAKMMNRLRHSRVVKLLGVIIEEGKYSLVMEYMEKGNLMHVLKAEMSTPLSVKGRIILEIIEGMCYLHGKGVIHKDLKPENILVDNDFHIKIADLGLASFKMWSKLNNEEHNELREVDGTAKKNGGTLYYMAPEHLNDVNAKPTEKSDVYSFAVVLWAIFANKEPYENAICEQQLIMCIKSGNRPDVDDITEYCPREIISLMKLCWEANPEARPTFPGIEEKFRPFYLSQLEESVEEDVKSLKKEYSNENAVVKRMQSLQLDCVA
Summary of the method: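 ADP-Glo luminescence of ATP-to-ADP conversion by 5 nM RIPK1 with 50 μM ATP (final), 6 h reaction after 10 min compound preincubation at rt. Buffer was 50 mM HEPES pH 7.5, 30 mM MgCl2, 0.05% BSA, 0.02% CHAPS. IC50 from four-parameter logistic fit.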

[1] = system: human monocytic cell line U937; assay: Human U937 cellular necroptosis assay (TNFalpha + z-VAD-FMK, Cell Titer-Glo viability); format: cell-based; details: U937 cells, 25 ng/mL human TNFalpha + 25 μM z-VAD-FMK, read-out: hU937 Avg IC50
Summary of the method: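 Cells resuspended in phenol red-free RPMI with 10% FBS, stimulated with 25 ng/mL human TNFalpha plus 25 μM z-VAD-FMK, then given serially diluted compound for 22 h at 37° C, 5% CO2. Viability by Cell Titer-Glo 2.0 luminescence; IC50 from four-parameter logistic fit, averaged across runs.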

| Compound | IC50 (RIPK1) [nM] | IC50 ([1]; Homo sapiens, U-937, 22 h) [nM] | IC50 ([1]; 22 h) [nM] |
| --- | --- | --- | --- |
| NC(=O)c1cn(CC23CC(C(=O)N4N=CCC4c4cc(F)cc(F)c4)(C2)C3)nn1 (stereo not shown) [Example 54, 1-((3-(5-(3,5-difluorophenyl)-4,5-dihydro-1H-pyrazole-1-carbonyl)-bicyclo[1.1.1]pentan-1-yl)methyl)-1H-1,2,3-triazole-4-carboxamide] | 409 | 2640 |  |
| N#Cc1cc2cn(CC34CC(C(=O)N5N=CCC5c5cc(F)cc(F)c5)(C3)C4)nc2cn1 (stereo not shown) [Example 219, 2-((3-(5-(3,5-difluorophenyl)-4,5-dihydro-1H-pyrazole-1-carbonyl)bicyclo[1.1.1]pentan-1-yl)methyl)-2H-pyrazolo[3,4-c]pyridine-5-carbonitrile] | 47 | 292 |  |
| O=C(N1N=CCC1c1cc(F)cc(F)c1)C12CC(Cn3cc(-c4ccccn4)cn3)(C1)C2 (stereo not shown) [Example 111, (5-(3,5-difluorophenyl)-4,5-dihydro-1H-pyrazol-1-yl)(3-((4-(pyridin-2-yl)-1H-pyrazol-1-yl)methyl)-bicyclo[1.1.1]pentan-1-yl)methanone] | 43 | 249 |  |
| N#Cc1ccc2c(cnn2CC23CC(C(=O)N4N=CCC4c4cc(F)cc(F)c4)(C2)C3)c1 (stereo not shown) [Example 64, 1-((3-(5-(3,5-difluorophenyl)-4,5-dihydro-1H-pyrazole-1-carbonyl)bicyclo[1.1.1]-pentan-1-yl)methyl)-1H-indazole-5-carbonitrile] | 10 | 7 |  |
| N#Cc1ccc2c(ccn2CC23CC(C(=O)N4N=CCC4c4cc(F)cc(F)c4)(C2)C3)n1 (stereo not shown) [Example 210, 1-((3-(5-(3,5-difluorophenyl)-4,5-dihydro-1H-pyrazole-1-carbonyl)bicyclo[1.1.1]pentan-1-yl)methyl)-1H-pyrrolo[3,2-b]pyridine-5-carbonitrile] | 9.4 | 10 |  |
| Cc1cncc(C2CC=NN2C(=O)C23CC(Cn4ncc5cc(C#N)ccc54)(C2)C3)n1 (stereo not shown) [Example 50, 1-((3-(5-(6-methylpyrazin-2-yl)-4,5-dihydro-1H-pyrazole-1-carbonyl)bicyclo[1.1.1]pentan-1-yl)methyl)-1H-indazole-5-carbonitrile] | 16 | 36 |  |
| O=C(N1N=CCC1c1cc(F)cc(F)c1)C12CC(CF)(C1)C2 (stereo not shown) [Example 5, (5-(3,5-Difluorophenyl)-4,5-dihydro-1H-pyrazol-1-yl)(3-(fluoromethyl)-bicyclo[1.1.1]pentan-1-yl)methanone] | 17 | 20 |  |
| N#Cc1cccc(C2CC=NN2C(=O)C23CC(Cn4ncc5ncccc54)(C2)C3)c1 (stereo not shown) [Example 139, 3-(1-(3-((1H-pyrazolo[4,3-b]-pyridin-1-yl)methyl)bicyclo-[1.1.1]pentane-1-carbonyl)-4,5-dihydro-1H-pyrazol-5-yl)benzonitrile] | 95 | 493 |  |
| (5-(3,5-difluorophenyl)-4,5-dihydro-1H-pyrazol-1-yl)(3-((6-fluoro-1H-benzo[d]-imidazol-1-yl)methyl)-bicyclo[1.1.1]pentan-1-yl)methanone and (5-(3,5-difluorophenyl)-4,5-dihydro-1H-pyrazol-1-yl)(3-((5-fluoro-1H-benzo[d]-imidazol-1-yl)methyl)-bicyclo[1.1.1]pentan-1-yl)methanone [Example 192] | 80 |  | 197 |
| O=C(N1N=CCC1c1cc(F)cc(F)c1)C12CC(COc3ccccc3Cl)(C1)C2 (stereo not shown) [Example 336, (3-((2-chlorophenoxy)methyl)-bicyclo[1.1.1]pentan-1-yl)(5-(3,5-difluorophenyl)-4,5-dihydro-1H-pyrazol-1-yl)-methanone] | 31 | 55 |  |
| N#Cc1cnc(OCC23CC(C(=O)N4N=CCC4c4cc(F)cc(F)c4)(C2)C3)cn1 (stereo not shown) [Example 199, 5-((3-(5-(3,5-difluorophenyl)-4,5-dihydro-1H-pyrazole-1-carbonyl)bicyclo[1.1.1]pentan-1-yl)methoxy)pyrazine-2-carbonitrile] | 8.3 | 9.3 |  |
| N#Cc1cnc2ncn(CC34CC(C(=O)N5N=CCC5c5cc(F)cc(F)c5)(C3)C4)c2c1 (stereo not shown) [Example 184, 1-((3-(5-(3,5-difluorophenyl)-4,5-dihydro-1H-pyrazole-1-carbonyl)bicyclo[1.1.1]-pentan-1-yl)methyl)-1H-imidazo[4,5-b]pyridine-6-carbonitrile or 3-((3-(5-(3,5-difluorophenyl)-4,5-dihydro-1H-pyrazole-1-carbonyl)bicyclo[1.1.1]pentan-1-yl)methyl)-3H-imidazo[4,5-b]pyridine-6-carbonitrile] | 136 |  | 1240 |
| O=C(N1N=CCC1c1cc(F)cc(F)c1)C12CC(Cn3cnc4ccccc43)(C1)C2 (stereo not shown) [Example 23, (3-((1H-Benzo[d]imidazol-1-yl)methyl)bicyclo[1.1.1]pentan-1-yl)(5-(3,5-difluorophenyl)-4,5-dihydro-1H-pyrazol-1-yl)methanone] | 30 | 158 |  |
| N#Cc1ccc2c(cnn2CC23CC(C(=O)N4N=CC[C@H]4c4cc(F)cc(F)c4)(C2)C3)c1 [Example 253, (S)-1-((3-(5-(3,5-difluoro-phenyl)-4,5-dihydro-1H-pyrazole-1-carbonyl)bicyclo-[1.1.1]pentan-1-yl)methyl)-1H-indazole-5-carbonitrile] | 51 | 479 |  |

The remaining compounds from weak to strong by IC50 (RIPK1), led by results:

| IC50 (RIPK1) [nM] | Compound | IC50 ([1]; Homo sapiens, U-937, 22 h) [nM] | IC50 ([1]; 22 h) [nM] |
| --- | --- | --- | --- |
| 4670 | Cc1csc(C2CC=NN2C(=O)C23CC(Cn4cc(C#N)cn4)(C2)C3)n1 (stereo not shown) [Example 170, 1-((3-(5-(4-methylthiazol-2-yl)-4,5-dihydro-1H-pyrazole-1-carbonyl)bicyclo[1.1.1]-pentan-1-yl)methyl)-1H-pyrazole-4-carbonitrile] | 9890 |  |
| 213 | Cn1cc(-c2cc(OCC34CC(C(=O)N5CC(F)CC5c5cccc(F)c5)(C3)C4)ncn2)cn1 (single isomer, unassigned) [Example 29, (4-Fluoro-2-(3-fluorophenyl)pyrrolidin-1-yl)(3-(((6-(1-methyl-1H-pyrazol-4-yl)pyrimidin-4-yl)oxy)methyl)bicyclo[1.1.1]pentan-1-yl)methanone] | 647 |  |
| 211 | N#Cc1ccc2c(cnn2CC23CC(C(=O)N4CCC4c4ccc(F)cc4)(C2)C3)c1 (stereo not shown) [Example 234, 1-((3-(2-(4-fluorophenyl)-azetidine-1-carbonyl)bicyclo-[1.1.1]pentan-1-yl)methyl)-1H-indazole-5-carbonitrile] | 1970 |  |
| 109 | N#Cc1cccc(OCC23CC(C(=O)N4CC(F)CC4c4cccc(F)c4)(C2)C3)n1 (stereo not shown) [Example 94, 6-((3-(4-fluoro-2-(3-fluoro-phenyl)pyrrolidine-1-carbonyl)bicyclo[1.1.1]-pentan-1-yl)methoxy)-picolinonitrile] | 994 |  |
| 79 | N#Cc1cccc2cn(CC34CC(C(=O)N5N=CCC5c5cc(F)cc(F)c5)(C3)C4)nc12 (stereo not shown) [Example 142, 2-((3-(5-(3,5-difluorophenyl)-4,5-dihydro-1H-pyrazole-1-carbonyl)bicyclo[1.1.1]pentan-1-yl)methyl)-2H-indazole-7-carbonitrile] | 750 |  |
| 79 | Cc1ncnc(OCC23CC(C(=O)N4CC(F)CC4c4cccc(F)c4)(C2)C3)c1F (stereo not shown) [Example 93, (4-fluoro-2-(3-fluorophenyl)-pyrrolidin-1-yl)(3-(((5-fluoro-6-methylpyrimidin-4-yl)oxy)methyl)bicyclo[1.1.1]-pentan-1-yl)methanone] | 398 |  |
| 73 | O=C(N1N=CCC1c1cc(F)cc(F)c1)C12CC(Cn3cc(-c4cnccn4)cn3)(C1)C2 (stereo not shown) [Example 112, (5-(3,5-difluorophenyl)-4,5-dihydro-1H-pyrazol-1-yl)(3-((4-(pyrazin-2-yl)-1H-pyrazol-1-yl)methyl)-bicyclo[1.1.1]pentan-1-yl)-methanone] | 285 |  |
| 59 | N#Cc1ccnc(OCC23CC(C(=O)N4CC(F)CC4c4cccc(F)c4)(C2)C3)c1 (stereo not shown) [Example 26, 2-((3-(4-Fluoro-2-(3-fluorophenyl)pyrrolidine-1-carbonyl)-bicyclo[1.1.1]pentan-1-yl)methoxy)isonicotinonitrile] | 472 |  |
| 43 | O=C(N1N=CCC1c1cc(F)cc(F)c1)C12CC(Cn3cc4ncccc4n3)(C1)C2 (stereo not shown) [Example 59, (3-((2H-pyrazolo[4,3-b]-pyridin-2-yl)methyl)bicyclo-[1.1.1]pentan-1-yl)(5-(3,5-difluorophenyl)-4,5-dihydro-1H-pyrazol-1-yl)methanone] | 226 |  |
| 34 | O=C(N1N=CCC1c1cc(F)cc(F)c1)C12CC(Cn3nc(Cl)c4ccccc43)(C1)C2 (stereo not shown) [Example 141, (3-((3-chloro-1H-indazol-1-yl)methyl)bicyclo[1.1.1]-pentan-1-yl)(5-(3,5-difluorophenyl)-4,5-dihydro-1H-pyrazol-1-yl)methanone] | 58 |  |
| 18 | O=C(N1N=CCC1c1cc(F)cc(F)c1)C12CC(Cn3ncc4nccnc43)(C1)C2 (stereo not shown) [Example 135, (3-((1H-pyrazolo[3,4-b]-pyrazin-1-yl)methyl)-bicyclo[1.1.1]pentan-1-yl)(5-(3,5-difluorophenyl)-4,5-dihydro-1H-pyrazol-1-yl)methanone] | 53 |  |
| 12 | O=C(N1N=CCC1c1cncc(F)c1)C12CC(Cn3ncc4c(F)cccc43)(C1)C2 (stereo not shown) [Example 14, (3-((4-Fluoro-1H-indazol-1-yl)methyl)bicyclo[1.1.1]pentan-1-yl)(5-(5-fluoropyridin-3-yl)-4,5-dihydro-1H-pyrazol-1-yl)methanone] | 24 |  |
